One block for each molecule: values may come before it.
Tests used:
Format in all cases: binding
EcCdnD [1] = target: T1, EcCdnD (Enterobacter hormaechei, UniProt P0DSP4); assay: ITC, single site
T1 sequence (P0DSP4 1-381): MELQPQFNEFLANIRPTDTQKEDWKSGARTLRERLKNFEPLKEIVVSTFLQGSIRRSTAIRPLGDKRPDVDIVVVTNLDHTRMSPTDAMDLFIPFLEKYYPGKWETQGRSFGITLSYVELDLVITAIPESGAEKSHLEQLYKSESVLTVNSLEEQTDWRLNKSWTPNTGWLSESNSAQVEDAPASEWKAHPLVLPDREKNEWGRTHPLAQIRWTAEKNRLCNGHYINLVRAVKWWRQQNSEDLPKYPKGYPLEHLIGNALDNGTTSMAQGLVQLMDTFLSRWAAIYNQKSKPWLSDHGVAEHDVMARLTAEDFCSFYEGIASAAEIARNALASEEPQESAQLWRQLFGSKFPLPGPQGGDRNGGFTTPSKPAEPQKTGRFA

EcCdnD [2] = target: T1, EcCdnD; assay: crystal structure
EcCdnD [3] = target: T1, EcCdnD; assay: crystal structure; remark: listed apart in the source

Kd (EcCdnD [1]): 29.7 ± 2.2 µM
Structure (SMILES): Nc1nc2c(ncn2[C@@H]2O[C@H](COP(=O)(O)O[C@H]3[C@@H](O)[C@H](n4cnc5c(N)ncnc54)O[C@@H]3COP(=O)(O)OP(=O)(O)OP(=O)(O)O)[C@@H](O)[C@H]2O)c(=O)[nH]1 [5′-pppApG-3′]

Structure (SMILES): Nc1ncnc2c1ncn2[C@@H]1O[C@H](COP(=O)(O)OP(=O)(O)O)[C@@H](O)[C@H]1O [ADP]
crystal structure (1.87 Å), together with donor ATP (EcCdnD [2]): The diphosphate group makes seven hydrogen bonds with Arg109, Arg197 and Arg307

Structure (SMILES): Nc1ncnc2c1ncn2[C@H]1CC[C@@H](CO[P@@](=O)(O)O[P@](=O)(O)OP(=O)(O)O)O1 [ddATP]
crystal structure (2.09 Å) (EcCdnD [3]): the ddATP occupied the binding site for the donor substrate

Reference: PMC8096243 (Nucleic Acids Research, 2021)
